Laboratory results published in patent US20050209278A1, “Piperidinyl- and piperazinyl-sulfonylmethyl hydroxamic acids and their use as protease inhibitors” (priority 2002, published 2005).

Target: T1, MMP-1 (Homo sapiens, UniProt P03956)
T1 construct: made in house; host or cells: MMP-1-transfected HT-1080 cells (spent media)
T1 sequence (P03956 100-469): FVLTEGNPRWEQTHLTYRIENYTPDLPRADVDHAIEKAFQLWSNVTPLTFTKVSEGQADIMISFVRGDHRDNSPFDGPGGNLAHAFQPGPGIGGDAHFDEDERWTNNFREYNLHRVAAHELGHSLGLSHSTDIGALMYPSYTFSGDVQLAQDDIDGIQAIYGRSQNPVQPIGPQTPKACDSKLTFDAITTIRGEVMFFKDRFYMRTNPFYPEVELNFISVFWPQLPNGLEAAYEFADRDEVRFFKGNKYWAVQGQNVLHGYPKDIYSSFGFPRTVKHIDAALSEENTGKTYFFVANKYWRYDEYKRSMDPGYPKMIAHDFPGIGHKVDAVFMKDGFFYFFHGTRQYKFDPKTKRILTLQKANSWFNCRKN
Test: In vitro MMP inhibition, IC50 determination (fluorogenic substrate I)
Type: biochemical
Conditions: value in parenthesis; read-out: MMP-1 (IC-50)
Method: Several hydroxamic acids and salts thereof were analyzed in in vitro assays to determine their ability to inhibit the MMP cleavage of peptide substrates. […] and IC50 constants were calculated from the assayed hydroxamic acid-MMP interactions. Human recombinant MMP-1, MMP-2, MMP-9, MMP-13, and MMP-14 were used in this assay. All enzymes were prepared in Assignee's laboratories following usual laboratory procedures. Protocols for the preparation and use of these enzymes are available in the scientific literature. See, e.g., Enzyme Nomenclature (Academic Press, San Diego, Calif., 1992) (and the citations therein). See also, Freije et al., “Molecular cloning and expression of collagenase-3, a novel human matrix metalloproteinase produced by breast carcinomas,” J Biol. Chem., 269(24), 16766-16773 (1994). The MMP-1 proenzyme was purified from the spent media of MMP-1-transfected HT-1080 cells provided by Dr. Harold Welgus of Washington University (St. Louis, Mo.). The protein was purified on a zinc chelating column. All MMPs were activated using 4-aminophenylmercuric acetate (“APMA”, Sigma Chemical, St. Louis, Mo.) or trypsin. MMP-9 also was activated using human recombinant MMP-3 (purified in Assignee's laboratory following standard cloning and purification techniques). […] Substrate (I) was purchased from Baychem (Redwood City, Calif.), and substrate II was prepared Assignee's laboratory. Substrate I was used in the IC50 determination assays, while substrate II was used in the Ki determination assays. In the absence of MMP inhibitory activity, either substrate is cleaved at the Gly-Leu peptide bond. […] The stock solutions of the assayed hydroxamic acids (or salts thereof) were prepared in 1% dimethyl sulfoxide (DMSO). […] The experiment controls contained the same amount of Buffer A/DMSO as the assayed sample, but contained no hydroxamic acid (or salt thereof). The assays from which the IC50 determinations were made were performed as follows. […] Louis, Mo.). The assayed hydroxamic acid samples were incubated in MicrofluorTM White Plates (Dynatech, Chantilly, Va.) and analyzed on a Perkin Elmer […] plate reader (Norwalk, Conn.). The excitation wavelength was 328 nm, and the emission wavelength-415 nm. […] As stated in the previous paragraph, samples containing varying concentrations of the same assayed hydroxamic acid were prepared. Inhibition was measured as a reduction in fluorescent intensity as a function of MMP inhibitor concentration. […] All values in Table 2 are given in nM units. The IC50 measurements are in parenthesis.

CCCCCCc1ccc(N2CCN(S(=O)(=O)C3(C(=O)NO)CCN(CCOC)CC3)CC2)cc1 [Example 199] and CCCc1ccc(N2CCN(S(=O)(=O)C3(C(=O)NO)CCN(CCOC)CC3)CC2)cc1 [Example 200] cannot be ordered by IC50: over 10 µM for the first, over 10 µM for the second.

First: COCCN1CCC(C(=O)NO)(S(=O)(=O)N2CCN(c3ccc(Br)cc3)CC2)CC1 [Example 201]
Second: COCCN1CCC(C(=O)NO)(S(=O)(=O)N2CCN(c3ccc(OC(F)(F)F)cc3)CC2)CC1 [Example 202]
The IC50 of the first is lower: 6.85 µM for the first, over 10 µM for the second.

In the case of O=C(NO)C1(S(=O)(=O)N2CCN(c3ccc(OC(F)(F)F)cc3)CC2)CCN(C2CC2)CC1 [Example 203], the IC50 is reported as over 10 µM.
